For the test, the target named is HIS-TGFβR1 T204D (Homo sapiens (Human), UniProt P36897, T204D). Nature of the test: HTRF probe-displacement assay, HIS-TGFβR1 T204D. The format is binding. The settings on record: 1 hour at room temperature. For orientation: Time-resolved FRET reads energy transfer from a long-lived donor to a nearby acceptor.

The text below walks through data of patent US10336761B2, “TGFβ receptor antagonist” (BRISTOL-MYERS SQUIBB COMPANY, priority 2015, dated 2019).

Structures are written as SMILES. pIC50: −log10 of the molar value.

Chain of HIS-TGFβR1 T204D (P36897 34-503 T204D): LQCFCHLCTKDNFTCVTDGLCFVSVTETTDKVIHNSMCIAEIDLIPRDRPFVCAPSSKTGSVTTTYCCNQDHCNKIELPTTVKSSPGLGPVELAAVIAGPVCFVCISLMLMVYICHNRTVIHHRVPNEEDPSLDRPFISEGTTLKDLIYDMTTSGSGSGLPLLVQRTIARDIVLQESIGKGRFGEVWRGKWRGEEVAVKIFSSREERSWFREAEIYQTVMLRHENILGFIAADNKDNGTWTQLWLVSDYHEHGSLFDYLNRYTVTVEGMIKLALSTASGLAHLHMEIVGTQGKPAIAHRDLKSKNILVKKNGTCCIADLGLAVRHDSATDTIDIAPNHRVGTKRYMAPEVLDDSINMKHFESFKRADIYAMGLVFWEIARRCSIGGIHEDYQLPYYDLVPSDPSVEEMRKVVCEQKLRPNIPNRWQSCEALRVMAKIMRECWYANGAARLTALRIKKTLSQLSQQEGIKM

Regarding `FC(F)c1cnccc1Nc1nc(-c2cccc(C(F)(F)F)n2)nn2cccc12` [Example 2, 3-(difluoromethyl)-N-{2-[6-(trifluoromethyl)pyridin-2-yl]pyrrolo[2,1-f][1,2,4]triazin-4-yl}pyridin-4-amine], the pIC50 (in general, the IC50 on a negative log10 scale, so that one unit is a factor of ten) was 7.96.

Molecule `Cc1nc(-c2nc(Nc3ccncc3Cl)c3cccn3n2)ccc1F` [Example 3, 3-chloro-N-[2-(5-fluoro-6-methylpyridin-2-yl)pyrrolo[2,1-f][1,2,4]triazin-4-yl]pyridin-4-amine] gave a pIC50 of 9.09.

As to `Fc1ccc(-c2nc(Nc3ccncc3Cl)c3cccn3n2)nc1` [Example 4, 3-chloro-N-[2-(5-fluoropyridin-2-yl)pyrrolo[2,1-f][1,2,4]triazin-4-yl]pyridin-4-amine], the pIC50 is 9.23. This pIC50 and that of the molecule before are within 0.2 log units of each other.

As for `NC(=O)c1cccc(-c2nc(Nc3ccncc3F)c3cccn3n2)n1` [Example 5, 6-{4-[(3-fluoropyridin-4-yl)amino]pyrrolo[2,1-f][1,2,4]triazin-2-yl}pyridine-2-carboxamide], the pIC50 was 7.19.

On to `Cc1cncc(-c2nc(Nc3ccncc3Cl)c3cccn3n2)n1` [Example 6, 3-chloro-N-[2-(6-methylpyrazin-2-yl)pyrrolo[2,1-f][1,2,4]triazin-4-yl]pyridin-4-amine], for which the pIC50 is 7.17.

With `Fc1c(Nc2nc(-c3cccc(C(F)F)n3)nn3cccc23)ccnc1Cl` [Example 7, 2-chloro-N-{2-[6-(difluoromethyl)pyridin-2-yl]pyrrolo[2,1-f][1,2,4]triazin-4-yl}-3-fluoropyridin-4-amine], the pIC50 was 7.06. The pIC50 values of the last two molecules are within 0.2 log units of each other.

`CS(=O)(=O)Nc1cccc(-c2nc(Nc3ccncc3)c3cccn3n2)n1` [Example 8, N-(6-{4-[(pyridin-4-yl)amino]pyrrolo[2,1-f][1,2,4]triazin-2-yl}pyridin-2-yl)methanesulfonamide] gave a pIC50 of 7.92.

Turning to `Cn1nccc1-c1nc(Nc2ccncc2F)c2cccn2n1` [Example 10, 3-fluoro-N-[2-(1-methyl-1H-pyrazol-5-yl)pyrrolo[2,1-f][1,2,4]triazin-4-yl]pyridin-4-amine], the pIC50 is 6.21.

Molecule `CC(=O)Nc1cc(Nc2nc(-c3ccc(F)c(C(F)F)n3)nn3cccc23)ccn1` [Example 11, N-[4-({2-[6-(difluoromethyl)-5-fluoropyridin-2-yl]pyrrolo[2,1-f][1,2,4]triazin-4-yl}amino)pyridin-2-yl]acetamide] had a pIC50 of 8.21.

Molecule `Cc1csc(-c2nc(Nc3ccncc3F)c3cccn3n2)n1` [Example 12, 3-fluoro-N-[2-(4-methyl-1,3-thiazol-2-yl)pyrrolo[2,1-f][1,2,4]triazin-4-yl]pyridin-4-amine] gave a pIC50 of 9.10.

For `CC(=O)Nc1cc(Nc2nc(-c3cccc(C(F)F)n3)nn3cccc23)ccn1` [Example 13, N-[4-({2-[6-(difluoromethyl)pyridin-2-yl]pyrrolo[2,1-f][1,2,4]triazin-4-yl}amino)pyridin-2-yl]acetamide], the pIC50 was 9.72. This pIC50 is 0.62 log units higher than that of the molecule before.

In the case of `Fc1cccc(-c2nc(Nc3ccncc3F)c3cccn3n2)n1` [Example 14, 3-fluoro-N-[2-(6-fluoropyridin-2-yl)pyrrolo[2,1-f][1,2,4]triazin-4-yl]pyridin-4-amine], the pIC50 is 9.10.

In turn, `COc1cccc(-c2nc(Nc3ccncc3C(F)F)c3cccn3n2)n1` [Example 15, 3-(difluoromethyl)-N-[2-(6-methoxypyridin-2-yl)pyrrolo[2,1-f][1,2,4]triazin-4-yl]pyridin-4-amine] showed a pIC50 of 8.00.

In turn, `COc1cccc(-c2nc(Nc3ccncc3)c3c(C)ccn3n2)n1` [Example 16, N-[2-(6-methoxypyridin-2-yl)-5-methylpyrrolo[2,1-f][1,2,4]triazin-4-yl]pyridin-4-amine] had a pIC50 of 8.03. This pIC50 and that of the molecule before are within 0.2 log units of each other.

On to `Fc1cnccc1Nc1nc(-c2nc(C(F)(F)F)cs2)nn2cccc12` [Example 17, N-(3-fluoropyridin-4-yl)-2-(4-(trifluoromethyl)thiazol-2-yl)pyrrolo[2,1-f][1,2,4]triazin-4-amine], for which the pIC50 was 9.14. Against the preceding molecule, the pIC50 is 1.11 log units higher.

In turn, `CC(=O)Nc1cc(Nc2nc(-c3ccc(F)c(C)n3)nn3cccc23)ccn1` [Example 19, N-(4-{[2-(5-fluoro-6-methylpyridin-2-yl)pyrrolo[2,1-f][1,2,4]triazin-4-yl]amino}pyridin-2-yl)acetamide] showed a pIC50 of 9.08.

On to `CC(=O)Nc1nccc(Nc2nc(-c3cccc(C(F)(F)F)n3)nn3cccc23)c1F` [Example 20, N-[3-fluoro-4-({2-[6-(trifluoromethyl)pyridin-2-yl]pyrrolo[2,1-f][1,2,4]triazin-4-yl}amino)pyridin-2-yl]acetamide], for which the pIC50 is 7.10.

As to `COc1cccc(-c2nc(Nc3ccncc3F)c3cc(NS(C)(=O)=O)cn3n2)n1` [Example 22, N-{4-[(3-fluoropyridin-4-yl)amino]-2-(6-methoxypyridin-2-yl)pyrrolo[2,1-f][1,2,4]triazin-6-yl}methanesulfonamide], the pIC50 is 7.25.

`Fc1cnccc1Nc1nc(-c2cccc(C(F)F)n2)nn2ccc(CN3CCC(F)(F)CC3)c12` [Example 23, N-{2-[6-(difluoromethyl)pyridin-2-yl]-5-[(4,4-difluoropiperidin-1-yl)methyl]pyrrolo[2,1-f][1,2,4]triazin-4-yl}-3-fluoropyridin-4-amine] gave a pIC50 of 8.96.

As to `CC(=O)Nc1cc(Nc2nc(-c3ccccn3)nn3ccc(CN4CCC(F)(F)CC4)c23)ccn1` [Example 24, N-[4-({5-[(4,4-difluoropiperidin-1-yl)methyl]-2-(pyridin-2-yl)pyrrolo[2,1-f][1,2,4]triazin-4-yl}amino)pyridin-2-yl]acetamide], the pIC50 was 9.40.

Molecule `COc1cccc(-c2nc(Nc3ccncc3F)c3c(CN4CCC(F)(F)CC4)ccn3n2)n1` [Example 25, N-{5-[(4,4-difluoropiperidin-1-yl)methyl]-2-(6-methoxypyridin-2-yl)pyrrolo[2,1-f][1,2,4]triazin-4-yl}-3-fluoropyridin-4-amine] showed a pIC50 of 8.05. This pIC50 is 1.35 log units lower than that of the molecule before.

For `CN1CCN(Cc2ccn3nc(-c4cccc(C(F)(F)F)n4)nc(Nc4ccncc4F)c23)CC1` [Example 26, 3-fluoro-N-{5-[(4-methylpiperazin-1-yl)methyl]-2-[6-(trifluoromethyl)pyridin-2-yl]pyrrolo[2,1-f][1,2,4]triazin-4-yl}pyridin-4-amine], the negative logarithm of the IC50 (pIC50) was 7.49.

Consider `Fc1cnccc1Nc1nc(-c2ccccn2)nn2ccc(CN3CCC(F)(F)CC3)c12` [Example 27, N-{5-[(4,4-difluoropiperidin-1-yl)methyl]-2-(pyridin-2-yl)pyrrolo[2,1-f][1,2,4]triazin-4-yl}-3-fluoropyridin-4-amine], for which the pIC50 was 8.89.

`COc1cccc(-c2nc(Nc3ccncc3F)c3c(C(O)CO)ccn3n2)n1` (centres unmarked) [Example 28, 1-{4-[(3-fluoropyridin-4-yl)amino]-2-(6-methoxypyridin-2-yl)pyrrolo[2,1-f][1,2,4]triazin-5-yl}ethane-1,2-diol] had a pIC50 of 7.80.

`CCc1cc2c(Nc3ccncc3F)nc(-c3cccc(OC)n3)nn2c1` [Example 29, 6-ethyl-N-(3-fluoropyridin-4-yl)-2-(6-methoxypyridin-2-yl)pyrrolo[2,1-f][1,2,4]triazin-4-amine] had a pIC50 of 7.80.

For the molecule `COc1cccc(-c2nc(Nc3ccncc3F)c3c(C(O)CN4CCC(N(C)C)CC4)ccn3n2)n1` (centres unmarked) [Example 30, 2-[4-(dimethylamino)piperidin-1-yl]-1-{4-[(3-fluoropyridin-4-yl)amino]-2-(6-methoxypyridin-2-yl)pyrrolo[2,1-f][1,2,4]triazin-5-yl}ethan-1-ol], the pIC50 was 6.59.

Molecule `COc1cccc(-c2nc(NCc3ccncc3)c3cccn3n2)n1` [Example 31, 2-(6-methoxypyridin-2-yl)-N-(pyridin-4-ylmethyl)pyrrolo[2,1-f][1,2,4]triazin-4-amine] gave a pIC50 of 6.09.

In the case of `CC(O)c1cccc(-c2nc(Nc3ccncc3F)c3cccn3n2)n1` (centres unmarked) [Example 32, 1-(6-{4-[(3-fluoropyridin-4-yl)amino]pyrrolo[2,1-f][1,2,4]triazin-2-yl}pyridin-2-yl)ethan-1-ol], the pIC50 is 7.15.

As for `O=C(CN1CCCC1)Nc1cc(Nc2nc(-c3cccc(C(F)F)n3)nn3cccc23)ccn1` [Example 33, N-[4-({2-[6-(difluoromethyl)pyridin-2-yl]pyrrolo[2,1-f][1,2,4]triazin-4-yl}amino)pyridin-2-yl]-2-(pyrrolidin-1-yl)acetamide], the pIC50 was 9.05.

`COc1cccc(-c2nc(Nc3ccnc(NCCN4CCC(F)(F)CC4)c3)c3cccn3n2)n1` [Example 34, 2-N-[2-(4,4-difluoropiperidin-1-yl)ethyl]-4-N-[2-(6-methoxypyridin-2-yl)pyrrolo[2,1-f][1,2,4]triazin-4-yl]pyridine-2,4-diamine] had a pIC50 of 6.32.

For the molecule `Cc1nc(-c2nc(Nc3ccncc3C(=O)NCCN3CCS(=O)(=O)CC3)c3cccn3n2)ccc1F` [Example 35, N-[2-(1,1-dioxo-1,4-thiomorpholin-4-yl)ethyl]-4-{[2-(5-fluoro-6-methylpyridin-2-yl)pyrrolo[2,1-f][1,2,4]triazin-4-yl]amino}pyridine-3-carboxamide], the pIC50 was 7.66.

With `Cc1cccc(-c2nc(Nc3ccncc3C(=O)NCCCN3CCS(=O)(=O)CC3)c3cccn3n2)n1` [Example 36, N-(3-(1,1-dioxidothiomorpholino)propyl)-4-((2-(6-methylpyridin-2-yl)pyrrolo[2,1-f][1,2,4]triazin-4-yl)amino)nicotinamide], the pIC50 was 8.52. Compared with the last molecule, the pIC50 is 0.86 log units higher.

In turn, `O=C(NCCCN1CCCC1)c1cnccc1Nc1nc(-c2cccc(C(F)(F)F)n2)nn2cccc12` [Example 37] gave a pIC50 of 7.33.

Turning to `COc1cccc(-c2nc(Nc3ccncc3COCCCN3CCOCC3)c3cccn3n2)n1` [Example 38, N-[2-(6-methoxypyridin-2-yl)pyrrolo[2,1-f][1,2,4]triazin-4-yl]-3-{[3-(morpholin-4-yl)propoxy]methyl}pyridin-4-amine], the pIC50 is 6.17. Compared with the last molecule, the pIC50 is 1.16 log units lower.

In turn, `COc1cccc(-c2nc(Nc3ccncc3F)c3cc(C(C)(C)O)cn3n2)n1` [Example 39, 2-{4-[(3-fluoropyridin-4-yl)amino]-2-(6-methoxypyridin-2-yl)pyrrolo[2,1-f][1,2,4]triazin-6-yl}propan-2-ol] gave a pIC50 of 5.80.
